# Measured values from BindingDB's records for doi:10.1016/j.bmcl.2010.04.020 (Kalypsys, 2010).
# Assay: Inhibition of ROCK1 in human GTM3 cells by impedance assay
row,Structure (SMILES),EC50 [µM]
1,Cc1c(-c2ccnc(N)n2)sc2ccc(C(N)C(C)C)cc12 (racemic) [(+/-)-4-(5-(1-amino-2-methylpropyl)-3-methylbenzo[b]thiophen-2-yl)pyrimidin-2-amine],2.1
2,Cc1c(-c2ccnc(N)n2)sc2ccc(C(N)CC(C)C)cc12 (racemic) [(+/-)-4-(5-(1-amino-3-methylbutyl)-3-methylbenzo[b]thiophen-2-yl)pyrimidin-2-amine],1.4
3,CCCC(N)c1ccc2sc(-c3ccnc(N)n3)c(C)c2c1 (racemic) [(+/-)-4-(5-(1-aminobutyl)-3-methylbenzo[b]thiophen-2-yl)pyrimidin-2-amine],0.6
4,COc1cccc(C(N)c2ccc3sc(-c4ccnc(N)n4)c(C)c3c2)c1 (racemic) [(+/-)-4-(5-(amino(3-methoxyphenyl)methyl)-3-methylbenzo[b]thiophen-2-yl)pyrimidin-2-amine],3.6
5,Cc1c(-c2ccnc(N)n2)sc2ccc(C(N)c3ccccc3)cc12 (racemic) [(+/-)-4-(5-(amino(phenyl)methyl)-3-methylbenzo[b]thiophen-2-yl)pyrimidin-2-amine],1.4
6,COc1ccc(C(N)c2ccc3sc(-c4ccnc(N)n4)c(C)c3c2)cc1 (racemic) [(+/-)--4-(5-(amino(4-methoxyphenyl)methyl)-3-methylbenzo[b]thiophen-2-yl)pyrimidin-2-amine],2.6
7,Cc1c(-c2ccnc(N)n2)sc2ccc(Cc3cccc(C(=O)O)c3)cc12 [3-((2-(2-aminopyrimidin-4-yl)-3-methylbenzo[b]thiophen-5-yl)methyl)benzoic acid],> 10
8,Cc1c(-c2ccnc(N)n2)sc2ccc(-c3ccccc3)cc12 [4-(3-methyl-5-phenylbenzo[b]thiophen-2-yl)pyrimidin-2-amine],> 10
9,Cc1c(-c2ccnc(N)n2)sc2ccccc12 [4-(3-methylbenzo[b]thiophen-2-yl)pyrimidin-2-amine],> 10
10,Cc1c(-c2ccnc(N)n2)sc2ccc(CN)cc12 [4-(5-(aminomethyl)-3-methylbenzo[b]thiophen-2-yl)pyrimidin-2-amine],> 10
11,Cc1c(-c2ccnc(N)n2)sc2ccc(Cc3ccccc3)cc12 [4-(5-benzyl-3-methylbenzo[b]thiophen-2-yl)pyrimidin-2-amine],> 10
12,COC(=O)c1cccc(Cc2ccc3sc(-c4ccnc(N)n4)c(C)c3c2)c1 [methyl 3-((2-(2-aminopyrimidin-4-yl)-3-methylbenzo[b]thiophen-5-yl)methyl)benzoate],> 10

# Continued, values first:
row,EC50 [µM],Structure (SMILES)
1,4.2,Cc1c(-c2ccnc(N)n2)sc2ccc(C(C)N)cc12 (racemic) [(+/-)-4-(5-(1-aminoethyl)-3-methylbenzo[b]thiophen-2-yl)pyrimidin-2-amine]
2,1.7,CCC(N)c1ccc2sc(-c3ccnc(N)n3)c(C)c2c1 (racemic) [(+/-)-4-(5-(1-aminopropyl)-3-methylbenzo[b]thiophen-2-yl)pyrimidin-2-amine]
3,2.7,Cc1c(-c2ccnc(N)n2)sc2ccc(C(N)c3cccc(Cl)c3)cc12 (racemic) [(+/-)--4-(5-(amino(3-chlorophenyl)methyl)-3-methylbenzo[b]thiophen-2-yl)pyrimidin-2-amine]
4,1.9,Cc1cccc(C(N)c2ccc3sc(-c4ccnc(N)n4)c(C)c3c2)c1 (racemic) [(+/-)--4-(5-(amino(m-tolyl)methyl)-3-methylbenzo[b]thiophen-2-yl)pyrimidin-2-amine]
5,2.9,Cc1c(-c2ccnc(N)n2)sc2ccc(Cc3cccc(O)c3)cc12 [3-((2-(2-aminopyrimidin-4-yl)-3-methylbenzo[b]thiophen-5-yl)methyl)phenol]
6,> 10,Cc1c(-c2ccnc(N)n2)sc2ccc(Cc3cccc(C(F)(F)F)c3)cc12 [4-(3-methyl-5-(3-(trifluoromethyl)benzyl)benzo[b]thiophen-2-yl)pyrimidin-2-amine]
7,> 10,COc1ccccc1Cc1ccc2sc(-c3ccnc(N)n3)c(C)c2c1 [4-(5-(2-methoxybenzyl)-3-methylbenzo[b]thiophen-2-yl)pyrimidin-2-amine]
8,> 10,COc1cccc(Cc2ccc3sc(-c4ccnc(N)n4)c(C)c3c2)c1 [4-(5-(3-methoxybenzyl)-3-methylbenzo[b]thiophen-2-yl)pyrimidin-2-amine]
9,> 10,COc1ccc(Cc2ccc3sc(-c4ccnc(N)n4)c(C)c3c2)cc1 [4-(5-(4-methoxybenzyl)-3-methylbenzo[b]thiophen-2-yl)pyrimidin-2-amine]
